What was measured:
[1] = biological target: T1, caspase-7 (Homo sapiens, UniProt P55210); assay: GST pull-down binding to caspase-7; conditions: glutathione-Sepharose beads, immunoblot
T1 construct: Purified active caspase concentrations ranged from 0.1 nM to 10 nM; His6; made in house; host or cells: E. coli BL21(DE3)pLysS
T1 sequence (P55210 24-198 limits assumed): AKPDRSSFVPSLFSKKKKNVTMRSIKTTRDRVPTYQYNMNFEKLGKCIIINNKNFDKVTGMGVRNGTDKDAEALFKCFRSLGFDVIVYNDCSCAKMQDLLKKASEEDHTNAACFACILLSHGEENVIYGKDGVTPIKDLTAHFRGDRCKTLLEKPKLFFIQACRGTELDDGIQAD
T1 sequence (P55210 207-303 limits assumed): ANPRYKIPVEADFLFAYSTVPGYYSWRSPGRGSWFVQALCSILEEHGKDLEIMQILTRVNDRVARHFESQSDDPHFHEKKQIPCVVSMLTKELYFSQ
Procedure: (§1) Following incubation at 4° C. for 60 min, the beads were removed by centrifugation and washed twice with 100 vol 50 mM Tris (pH 7.5), 150 mM KCl, 2 mM DTT and 0.025% Triton-X100, then subjected to SDS-PAGE and immunoblot assay (see Example I.B.3).

[2] = test system: 293T cells; assay: Caspase-9-induced pro-caspase-3 processing and apoptosis in transfected 293T cells; assay type: cell-based, human; conditions: co-transfection with FLAG-caspase-9; for number of apoptotic 293T cells (in words): DAPI staining
Procedure: Co-immunoprecipitations and immunoblot assays were performed as follows. […] Cells were collected 24–48 hrs later by centrifugation, washed in ice cold PBS and lysed for 20 minutes in lysis buffer (10 mM Hepes, 142 mM KCl, 5 mM MgCl2, 1 mM EGTA, 0.2% NP-40). Lysates were cleared by centrifugation at 16,000×g for 30 minutes. Myc-tagged IAP proteins were immunoprecipitated with 40 μl of anti-myc 9E10 antibody immobilized on Protein G-Sepharose (Santa Cruz) for 2 hrs. Immunoprecipitates were washed 3 times with lysis buffer, and bound proteins separated by SDS-PAGE and analyzed by immunoblotting using antibodies specific for the FLAG epitope (Kodak, Inc.), myc-epitope, or caspase-3.
Cell lysates were prepared 16 hr later for either (A) immunoblot analysis of caspase-3, or (B) DEVD-AFC. Immunoblot analysis of pro-caspase-3 was performed with lysates from cells induced to undergo apoptosis by overexpressing pro-caspase-9 in the absence or presence of the IAPs. For DEVD-AFC analysis, lysates were normalized for total protein content and assayed for hydrolysis of DEVD-AFC as described above. […] In panel D, IAP proteins were immunoprecipitated with anti-myc antibody immobilized on protein G-Sepharose at ˜16 hours post-transfection. Immunoblot analysis with anti-FLAG antibody was employed for detection of pro-caspase-9 in the resulting immune complexes. Lysates from the same cell (50 μg per lane) were also analyzed by immunoblotting using anti-FLAG and anti-myc antibodies to verify expression of […].

[3] = biological target: T2, pro-caspase-9 (Homo sapiens, UniProt P55211); assay: In vitro reconstituted pro-caspase-9 processing (Apaf-1, cytochrome c, dATP); assay type: biochemical; conditions: 0.1 μM protein; Apaf-1, 10 μM cytochrome c, 1 mM dATP
T2 construct: in vitro translated ^35S-labeled pro-caspase-9 and Apaf-1 were incubated individually or together; His6; made in house; host or cells: coupled in vitro transcription/translation in reticulocyte lysate (TNT kit, Promega)
T2 sequence (P55211 1-416): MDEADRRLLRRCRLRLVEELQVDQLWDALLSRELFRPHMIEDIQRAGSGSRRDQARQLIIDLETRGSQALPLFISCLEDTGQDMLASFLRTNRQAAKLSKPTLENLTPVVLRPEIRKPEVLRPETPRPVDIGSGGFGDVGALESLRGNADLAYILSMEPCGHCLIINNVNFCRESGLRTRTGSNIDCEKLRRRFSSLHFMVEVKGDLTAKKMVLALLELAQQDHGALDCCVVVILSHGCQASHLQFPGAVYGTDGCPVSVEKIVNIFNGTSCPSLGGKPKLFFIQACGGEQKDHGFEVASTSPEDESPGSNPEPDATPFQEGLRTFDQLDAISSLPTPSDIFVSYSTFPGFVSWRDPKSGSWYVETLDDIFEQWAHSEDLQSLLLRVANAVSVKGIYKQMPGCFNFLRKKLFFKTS

[4] = test system: DEVD-pNA hydrolysis activity in 293 cell cytosolic extracts; assay: Cytochrome c/dATP-induced caspase activation (DEVD hydrolysis) in 293 cell cytosolic extracts; assay type: biochemical, human
Procedure: Cells were washed with ice cold buffer A (20 mM Hepes (pH 7.5), 10 mM KCl, 1.5 mM MgCl2, 1 mM EDTA, 1 mM DTT and 0.1 mM PMSF) and suspended in 1 vol buffer A, then incubated on ice for 20 min. 293 cells were disrupted by passage 15× through a 26 gauge needle and Jurkat T cells were disrupted by dounce homogenization in 2 ml using 15 strokes with a pestle B. Cell extracts (10–15 mg total protein/ml) were clarified by centrifugation at 16,000×g for 30 min, then the NaCl concentration was increased by 50 mM. Cytosolic fractions were used immediately or stored frozen at −80° C.
Caspase activity was assayed by release of either 7-amino-4-trifluoromethyl-coumarin (AFC) or p-nitroanilide (pNA) from benzylyoxycarbonyl-DEVD (SEQ ID NO: 2) or benzylyoxycarbonyl-YVAD (SEQ ID NO: 3) synthetic peptides using a Molecular Devices Spectromax 340 for AFC labeled peptides or Perkin/Elmer LS50B for pNA labeled peptides (see Example II; see, also, Zhou et al., supra, 1997). Cytosolic extracts from 293 cells or Jurkat T cells were used directly (negative control) or were treated with 1 μM cytochrome c and 1 mM dATP or with cytochrome c, dATP and 0.2 μM GST-XIAP. Additional control reactions were performed by substituting 2 μM GST-Bcl-2, GST-Bax, GST-NM23 or GST-CD40 cytosolic domain, or 5 μM His6-S5a protein for GST-XIAP. DEVD-pNA hydrolysis was measured at various times and multiple experiments were performed using several different GST-XIAP preparations.

[5] = biological target: T3, caspase-3 (Homo sapiens, UniProt P42574); assay: GST pull-down binding to caspase-3; conditions: glutathione-Sepharose beads, immunoblot
T3 construct: to produce the 17–20 kDa mature, fully processed large subunit of the active caspase-3 enzyme; a smaller, fully processed, subunit of about 11 kDa; His6; made in house; host or cells: E. coli BL21(DE3)pLysS
T3 sequence (P42574 29-175 limits assumed): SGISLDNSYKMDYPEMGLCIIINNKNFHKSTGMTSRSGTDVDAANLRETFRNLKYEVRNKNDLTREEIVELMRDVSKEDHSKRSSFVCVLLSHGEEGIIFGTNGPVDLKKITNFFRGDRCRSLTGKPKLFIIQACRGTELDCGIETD
T3 sequence (P42574 176-277 limits assumed): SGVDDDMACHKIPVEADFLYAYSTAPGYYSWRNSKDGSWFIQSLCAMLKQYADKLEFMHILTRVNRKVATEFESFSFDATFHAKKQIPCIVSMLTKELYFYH
Procedure: as §1

| binding of caspase-7 (in words) [1] | pro-caspase-9 processing in reconstituted system (in words) [3] | binding of caspase-3 (in words) [5] | Substance | caspase-9-induced cleavage of pro-caspase-3 and Ac-DEVD-AFC cleavage activity (in words) [2] | number of apoptotic 293T cells (in words) [2] | DEVD-pNA hydrolysis, ΔA405 after 15 min ([4]; 293 extracts + cytochrome c/dATP, GST-XIAP 0.2 μM, GST controls 2 μM, His6-S5a 5 μM, untreated ≈0.01) | reduction of cytochrome c/dATP-induced DEVD-pNA hydrolyzing activity ([4]; extracts of cells transfected with pcDNA3-XIAP versus control plasmid) | DEVD hydrolysis in activated 293 cell cytosolic extracts (in words) ([4]; 3 μM, extracts activated 30 min with cytochrome c and dATP) |
| --- | --- | --- | --- | --- | --- | --- | --- | --- |
| Specific binding | completely blocked | Specific binding | XIAP: X chromosome linked inhibitor of apoptosis protein (Genbank U32974), used mostly as recombinant GST fusion or expressed from plasmid | markedly reduced | a reduction in the number of apoptotic 293T cells | approximately the same as untreated control extracts | greater than 50% |  |
| bound | completely blocked | bound | c-IAP-2: cellular IAP protein c-IAP-2/HIAP-1/hMIHC, recombinant GST fusion or myc-tagged | markedly reduced | a reduction in the number of apoptotic 293T cells |  |  | inhibited DEVD hydrolysis |
